Reference: patent US20200087248A1, “Fluoroallylamine Derivative And Use Thereof” (SICHUAN KELUN-BIOTECH BIOPHARMACEUTICAL CO., LTD., priority 2017, published 2020)
Structures can show the parent of a compound that is named as a salt.

Experiments:
[1] = molecular target: T1, hERG (Homo sapiens, UniProt Q12809); assay: hERG fluorescence polarization inhibition experiment; details: hERG cell membrane, 25° C. 2 hours, read-out: hERG (IC50 range, competitive binding vs tracer)
T1 construct: purchased ThermoFisher; host or cells: hERG cell membrane supplied with the kit
Method in brief: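 Fluorescence-polarization tracer displacement on hERG cell membranes; compound and high-affinity tracer incubated 2 h at 25 °C. % inhibition from mP relative to buffer (0%) and 30 μM E4031 (100%) over several concentrations, giving an IC50 range.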

[2] = molecular target: T2, MAO-B (Homo sapiens, UniProt P27338); assay: Inhibition of the enzymatic activity of MAO-B; type: biochemical; details: range of IC50 from inhibition rates at 10 μM, 1 μM and 0.1 μM; read-out: IC50, inhibition against the enzymatic activity of MAO-B
T2 construct: purchased Sigma Aldrich
T2 sequence (P27338 1-520): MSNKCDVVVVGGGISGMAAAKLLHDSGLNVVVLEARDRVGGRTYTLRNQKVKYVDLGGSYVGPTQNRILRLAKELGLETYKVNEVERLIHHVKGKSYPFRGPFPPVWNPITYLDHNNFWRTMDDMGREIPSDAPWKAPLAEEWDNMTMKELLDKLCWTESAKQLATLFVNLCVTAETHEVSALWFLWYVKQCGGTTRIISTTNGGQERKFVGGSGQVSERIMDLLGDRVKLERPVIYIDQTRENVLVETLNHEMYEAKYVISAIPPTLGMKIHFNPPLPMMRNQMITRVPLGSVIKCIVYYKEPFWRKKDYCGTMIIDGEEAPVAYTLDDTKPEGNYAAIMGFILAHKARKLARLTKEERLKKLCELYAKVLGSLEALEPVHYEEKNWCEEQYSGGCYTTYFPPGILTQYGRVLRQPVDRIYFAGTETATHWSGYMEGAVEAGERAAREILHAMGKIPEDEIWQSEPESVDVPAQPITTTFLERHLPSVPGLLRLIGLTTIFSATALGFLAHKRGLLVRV
Description: Inhibition Experiment Against the Enzymatic Activity of MAO-B (Monoamine Oxidase Type B)
(§1) 1. Test kit: Amplex® Red Monoamine Oxidase Assay, Manufacturer: ThermoFisher
Protein: MAO-B, manufacturer: Sigma Aldrich
According to the method as described in the specification of the test kit, MAO-B protein (5 μg/ml) and different concentrations of the test compound were pre-incubated at room temperature for 10 minutes, and then 150 μM benzylamine hydrochloride, 1 U/mL HRP and 200 μM Amplex Red reagent were added to start the reaction. The relative inhibition rate of each concentration group were calculated according to the experimental method of MAO-A.
According to the above method, the inhibition of the compound against the activity of the MAO-B was measured, and the range of IC50 was obtained according to the inhibition rates at 10 μM, 1 μM and 0.1 μM.

[3] = molecular target: T3, MAO-A (Homo sapiens, UniProt P21397); assay: Inhibition of the enzymatic activity of MAO-A; type: biochemical; details: range of IC50 from inhibition rates at 100 μM and 10 μM; read-out: IC50, inhibition against the enzymatic activity of MAO-A
T3 construct: purchased Sigma Aldrich
T3 sequence (P21397 1-527): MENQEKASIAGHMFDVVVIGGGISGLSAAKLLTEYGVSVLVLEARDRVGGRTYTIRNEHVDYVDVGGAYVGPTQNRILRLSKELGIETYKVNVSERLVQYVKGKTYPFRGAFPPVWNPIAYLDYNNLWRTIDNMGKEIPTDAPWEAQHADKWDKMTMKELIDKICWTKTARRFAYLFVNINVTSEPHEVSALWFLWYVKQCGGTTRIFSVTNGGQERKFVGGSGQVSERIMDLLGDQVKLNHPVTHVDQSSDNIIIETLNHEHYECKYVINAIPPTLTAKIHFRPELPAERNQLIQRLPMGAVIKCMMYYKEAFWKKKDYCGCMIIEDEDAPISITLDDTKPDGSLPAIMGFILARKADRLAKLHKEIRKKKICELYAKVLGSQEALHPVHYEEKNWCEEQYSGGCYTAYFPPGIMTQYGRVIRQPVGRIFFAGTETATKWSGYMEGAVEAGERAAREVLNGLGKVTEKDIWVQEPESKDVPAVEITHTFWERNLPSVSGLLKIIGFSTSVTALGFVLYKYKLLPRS
Description: Inhibition Experiment Against the Enzymatic Activity of MAO-A (Monoamine Oxidase Type A)
as §1
2. Reaction Buffer Solution: 50 mM PBS, pH 7.4
Protein: MAO-A, manufacturer: Sigma Aldrich
According to the method as described in the specification of the kit, MAO-A protein (15 μg/ml) and different concentrations of the test compound were pre-incubated at room temperature for 30 minutes, and then 200 μM p-tyramine hydrochloride, 1 U/mL HRP and 200 µM Amplex Red reagent were added to start the reaction. In kinetic mode, fluorescence signals were measured at Ex/Em=540/590 nm. The inhibition rate of each concentration group was calculated, wherein the ratio of fluorescence signal to reaction time ratio is the reaction rate, the vehicle group (DMSO) is the negative control, and the reaction buffer solution group (without enzymes and the compounds) is the blank control.
Percent inhibition rate (%)=(1-(reaction rate of each compound concentration group−reaction rate of the blank group)/(reaction rate of vehicle group−reaction rate of the blank group))*100.
According to the above method, the inhibition of the compound against the enzymatic activity of MAO-A was measured, and the range of IC50 was obtained according to the inhibition rates at 100 μM and 10 μM.

T1 sequence (Q12809 whole entry): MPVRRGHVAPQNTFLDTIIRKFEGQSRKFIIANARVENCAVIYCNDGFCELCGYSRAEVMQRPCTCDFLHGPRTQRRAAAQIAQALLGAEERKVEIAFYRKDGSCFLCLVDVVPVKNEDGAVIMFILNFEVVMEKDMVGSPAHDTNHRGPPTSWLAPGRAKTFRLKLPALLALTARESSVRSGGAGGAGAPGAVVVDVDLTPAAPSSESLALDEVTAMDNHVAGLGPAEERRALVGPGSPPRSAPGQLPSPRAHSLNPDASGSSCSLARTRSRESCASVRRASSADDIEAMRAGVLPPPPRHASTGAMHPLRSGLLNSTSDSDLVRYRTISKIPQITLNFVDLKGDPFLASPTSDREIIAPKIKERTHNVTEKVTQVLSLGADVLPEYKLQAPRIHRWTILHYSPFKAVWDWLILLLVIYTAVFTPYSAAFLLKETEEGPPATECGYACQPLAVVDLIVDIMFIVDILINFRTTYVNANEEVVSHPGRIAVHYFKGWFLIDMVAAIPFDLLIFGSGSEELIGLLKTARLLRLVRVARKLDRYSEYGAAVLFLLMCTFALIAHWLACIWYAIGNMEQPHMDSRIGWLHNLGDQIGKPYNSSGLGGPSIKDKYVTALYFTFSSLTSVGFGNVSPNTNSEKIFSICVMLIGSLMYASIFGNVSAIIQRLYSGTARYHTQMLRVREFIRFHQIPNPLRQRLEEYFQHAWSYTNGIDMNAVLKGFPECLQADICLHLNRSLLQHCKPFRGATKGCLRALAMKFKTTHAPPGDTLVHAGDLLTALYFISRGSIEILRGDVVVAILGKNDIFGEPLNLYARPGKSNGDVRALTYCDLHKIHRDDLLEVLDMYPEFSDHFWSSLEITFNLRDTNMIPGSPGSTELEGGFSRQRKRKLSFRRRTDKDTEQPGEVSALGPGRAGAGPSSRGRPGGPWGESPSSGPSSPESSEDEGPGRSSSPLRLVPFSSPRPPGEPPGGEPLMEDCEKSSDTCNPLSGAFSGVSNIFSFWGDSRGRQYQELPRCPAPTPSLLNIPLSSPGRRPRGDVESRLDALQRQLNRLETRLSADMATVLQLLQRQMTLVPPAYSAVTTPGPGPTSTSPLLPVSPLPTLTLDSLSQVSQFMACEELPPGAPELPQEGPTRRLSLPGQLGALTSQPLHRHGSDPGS

Row | IC50 [2] | IC50 [3] | Compound | IC50 [1]
1 |  |  | NC/C(=C\F)COc1ccc(C(=O)Nc2ccccc2)cc1 [TM1-E, (E)-N-phenyl-4-((2-aminomethyl-3-fluoroallyl)oxy)-benzamide trifluoroacetate] | > 10 µM
2 | > 10 µM | > 100 µM | NC/C(=C\F)COc1ccc2c(c1)C(=O)CC2 [TM7-E, (E)-6-((2-aminomethyl-3-fluoroallyl)oxy)-2,3-dihydro-1-indenone trifluoroacetate] | > 10 µM
3 | > 1 µM | > 100 µM | NC/C(=C/F)COc1ccc2c(c1)CCNC2=O [TM26-Z, (Z)-6-((2-aminomethyl-3-fluoroallyl)oxy)-3,4-dihydroisoquinolin-1(2H)-one trifluoroacetate] | > 10 µM
4 |  | > 10 µM | NC/C(=C\F)COc1ccc(-c2ncccn2)cc1 [TM39-E, (E)-2-(4-(2-pyrimidyl)phenoxymethyl)-3-fluoroallylamine trifluoroacetate] | > 10 µM
5 | > 1 µM | > 100 µM | NC/C(=C\F)COc1ccc(C(=O)NC2CCOCC2)cc1 [TM76-E, (E)-N-(tetrahydro-2H-pyran-4-yl)-4-((2-aminomethyl-3-fluoroallyl)oxy)-benzamide trifluoroacetate] | > 10 µM
6 | > 0.1 µM | > 100 µM | NC/C(=C/F)COc1ccc(C(=O)NCc2ccccn2)cc1 [TM112-Z, (Z)-4-((2-aminomethyl-3-fluoroallyl)oxy)-N-(pyridin-2-ylmethyl)benzamide trifluoroacetate] | > 10 µM

Row | Compound | IC50 [2] | IC50 [3] | IC50 [1]
7 | (E)-6-((2-(methylamino)-3-fluoroallyl)oxy)-2-methyl-3,4-dihydroisoquinolin-1(2H)-one trifluoroacetate [TM66-E] | > 10 µM | > 10 µM | > 10 µM
8 | (E)-6-((2-(methylamino)-3-fluoroallyl)oxy)-3,3-dimethyl-3,4-dihydro-isoquinolin-1(2H)-one trifluoroacetate [TM38-E] | > 10 µM | > 100 µM | > 10 µM
